In PMC6434189, “Peperomin E and its orally bioavailable analog induce oxidative stress-mediated apoptosis of acute myeloid leukemia progenitor cells by targeting thioredoxin reductase” (Redox Biology, 2019):
Where two headings read alike, the source gives them in different places.

Tests used:
[1] = system: CD34+ NBM cells and hBMSCs; test: CCK-8 cell viability assay on normal CD34+ NBM cells and hBMSCs; assay type: cell-based, human; details: 48 h; for toxicity on control CD34+ NBM cells and hBMSCs: 6 μM; for effects on NBM and hBMSC cells: 12 μM
Experimental: The mononuclear cells were further enriched for CD34 positive cells using the MACS CD34 MicroBead kit following the manufacturer's protocol. Enriched CD34 cell-purity was measured by flow cytometry-based quantification of cells stained using an anti-CD34-FITC antigen. Isolated CD34^+ cells were pre-incubated in the IMDM-based serum-free media for 1 h before the addition of drugs. PepE was dissolved in DMSO to make a 100 mM stock solution and stored in aliquots at – 20 °C. The 100 mM stock solution was diluted with DMSO to 10 mM and then diluted with PBS to 1 mM before treating the cells at the indicated concentrations. DMAPE and Ara-C were diluted in PBS to 1 mM concentration before use.
(§1) Unless otherwise mentioned, 2 × 10^4 cells were seeded at 96-well plates (Corning, New York, USA) in the IMDM-based serum-free media for 1 h. Then, the cells were incubated with different concentrations of PepE and DMAPE at 37 °C in a 5% CO2 incubator for 48 h. At the end of the treatment, 10 μL CCK-8 solution was added to each well and incubated for an additional 2 h at 37 °C, and the absorbance at 450 nm was measured with a microplate reader (Thermo Scientific, Multiskan GO, Finland). Inhibition ratio (%) was calculated as [(absorbance of control − absorbance of the test sample)/absorbance of control] x 100%.

[2] = Pharmacokinetic study of DMAPE in rats; assay type: in vivo, Sprague–Dawley rats; details: for MRT last: read-out: MRT 0-t; for MRT inf: read-out: MRT 0-∞
Description: The UFLC-MS/MS system consisted of a Prominence™ UFLC system (Shimadzu, Kyoto, Japan) coupled with a QTRAP™ 5500 MS/MS system (Applied Biosystems/MDS SCIEX, Foster City, CA, USA) and controlled by the Analyst 1.5.2 software. MS‐grade methanol and acetonitrile were purchased from Merck (Darmstadt, Germany). Ultra‐pure water was generated using a MilliQ™ direct water purification system (Merck–Millipore, Billerica, MA, USA). The mass spectra and chromatographic conditions, method validations, standard and sample preparation for simultaneous determination of DMAPE and its parent drug PepE in rat plasma are provided in the Additional method in Supplementary Materials.
Male Sprague–Dawley rats weighing 200 ± 20 g were supplied by the Qinglongshan Experimental Animal Breeding Company (Nanjing, China). The experiment protocol was approved by the Animal Ethics Committee of Nanjing University of Chinese Medicine (Nanjing, China). The rats were housed under controlled environmental conditions (temperature 25 ± 2 °C, relative humidity 50 ± 10%) with free access to standard laboratory food and water. Before drug administration, the rats were randomly divided into two groups (eight rats per group) and fasted for 12 h with access to water. DMAPE phosphate salt aqueous solution was i. g. (50 mg/kg) or i. v. (50 mg/kg) administrated. Blood samples were collected from the tail vein into heparinized Eppendorf tubes using lithium heparin‐containing microvettes. The plasma was obtained by centrifugation of the blood at 5000 rpm for 10 min and then frozen at −20 °C until analysis. Pharmacokinetic parameters were calculated using the DAS 2.1.1 software (Pharmacological Society of China, China) using non-compartmental analysis.

[3] = system: KG-1a CD34+ cells; test: Annexin V-FITC/PI apoptosis assay; assay type: cell-based, human; details: 6 μM; for cell apoptosis (early + late): 12 h; for apoptotic population (early + late): 24 h
Description: The cells were harvested and washed twice with PBS. The apoptotic cells, necrotic cells, and live cells were identified by PI and Annexin V-FITC staining assay following the manufacturer's instructions. Data were obtained and analyzed using a BD Accuri™ C6 flow cytometer (BD Biosciences, San Jose, CA, USA) with CellQuest software (BD Biosciences).

[4] = system: TrxR1 overexpressed KG-1a cells (ACTV cells); test: CCK-8 viability in TrxR1 overexpressed KG-1a cells; assay type: cell-based, human; details: 48 h
Experimental: as §1
For TrxR1 overexpression experiment, KG-1a CD34^+ cells were seeded in a six-well plate at 2.5 × 10^5/well in antibiotic-free IMDM medium for 24 h, then cells were transfected with TrxR1 CRISPR activation plasmids (control CRISPR plasmids as a negative control) according to the manufacturer's instructions. Briefly, for each transfection, 0.15 ml of the Plasmid DNA solution (containing 3 μg of TrxR1 activation or control DNA plasmids) and 0.15 ml of diluted UltraCruz transfection reagent (Santa Cruz Biotech, sc-395739) were gently mixed and added to the cells. […] The activation efficiencies were evaluated by western blot and RT-qPCR analyses.

[5] = Stability of the analytes in rat plasma (UFLC-MS/MS); assay type: in vitro ADME; details: for Freeze-thaw 3 cycles RE (%) / Store at -20℃ for 24h RE (%) / Store at auto-sampler RE (%): rat plasma, n=6; for stability in rat plasma samples: −20 °C for 15 days, three freeze/thaw cycles, room temperature 6 h, autosampler 4 °C 12 h
[6] = male, Sprague-Dawley, po, rat plasma, DMAPE 50 mg/kg intragastric
[7] = male, Sprague-Dawley, rat, plasma, po, 50 mg/kg, rat plasma, DMAPE 50 mg/kg intragastric
[8] = male, Sprague-Dawley, rat plasma, DMAPE 50 mg/kg intravenous

AUC(0-inf) [2, 6] [ng·h/mL] | AUC(0-t) [2, 6] [ng·h/mL] | Cmax [2, 6] [ng/mL] | half-life [2, 6] [h] | MRT last [2, 6] [h] | MRT inf [2, 6] [h] | Tmax [2, 7] [h] | AUC(0-inf) [2, 8] [ng·h/mL] | AUC(0-t) [2, 8] [ng·h/mL] | Cmax [2, 8] [ng/mL] | clearance [2, 8] [mL/min/kg] | half-life [2, 8] [h] | MRT last [2, 8] [h] | MRT inf [2, 8] [h] | Freeze-thaw 3 cycles RE (%) ([5]; 5 ng/ml) | Structure (SMILES) | toxicity on control CD34+ NBM cells and hBMSCs [1] | effects on NBM and hBMSC cells [1] | cell apoptosis (early + late) [3] [%] | apoptotic population (early + late) [3] [%] | toxicity against ACTV cells vs CTRL ACTV cells [4] | also measured
25400 ± 8950 | 25200 ± 8960 | 5760 ± 2510 | 4.26 ± 1.63 | 4.9 ± 0.42 | 5.29 ± 0.32 | ≤ 0.85 | 30000 ± 7010 | 29900 ± 7070 | 21700 ± 3590 | 29 | 4.33 ± 1.77 | 2.61 ± 0.86 | 2.73 ± 0.85 | -13.1 | COc1cc(C(c2cc(OC)c3c(c2)OCO3)[C@@H]2COC(=O)[C@H]2CN(C)CCO)cc2c1OCO2 [DMAPE, (2S,3S)-6-Methyl (hydroxyethyl) amino-2,6-dihydropeperomin E] | reduced toxicities | relatively safe | ~55 | ~90 | significant lower toxicity | bioavailability ([2]; male, Sprague-Dawley, rat, plasma, oral, 50 mg/kg, rat, DMAPE 50 mg/kg intragastric vs intravenous, read-out: Bioavailability, F): 85%; CL ([2]; rat plasma, DMAPE 50 mg/kg intragastric): 35.7 ± 10.2 mL/min/kg; Store at -20℃ for 24h RE (%) ([5]; 5 ng/ml): -11.0%; Store at auto-sampler RE (%) ([5]; 5 ng/ml): -11.3%; Freeze-thaw 3 cycles RE (%) ([5]; 200 ng/ml): 11.2%; Store at -20℃ for 24h RE (%) ([5]; 200 ng/ml): 3.0%; Store at auto-sampler RE (%) ([5]; 200 ng/ml): -1.3%; Freeze-thaw 3 cycles RE (%) ([5]; 1000 ng/ml): -5.1%; Store at -20℃ for 24h RE (%) ([5]; 1000 ng/ml): 3.3%; Store at auto-sampler RE (%) ([5]; 1000 ng/ml): -3.7%; stability in rat plasma samples [5]: stable
10700 ± 2930 | 10600 ± 2930 | 2300 ± 270 | 7.02 ± 1.3 | 7.32 ± 0.82 | 7.75 ± 0.74 | ≤ 0.85 | 11400 ± 3520 | 11300 ± 3520 | 8630 ± 2040 | 77.5 | 8.89 ± 4.8 | 3.91 ± 1.4 | 4.64 ± 1.88 | -11.5 | C=C1C(=O)OC[C@H]1C(c1cc(OC)c2c(c1)OCO2)c1cc(OC)c2c(c1)OCO2 [PepE, Peperomin E] | reduced toxicities | modest effects | ~65 | ~85 | significant lower toxicity | Tmax ([2]; male, Sprague-Dawley, rat, plasma, iv, 50 mg/kg, rat plasma, DMAPE 50 mg/kg intravenous): 0.21 ± 0.17 h; Store at -20℃ for 24h RE (%) ([5]; 5 ng/ml): 4.4%; Store at auto-sampler RE (%) ([5]; 5 ng/ml): -10.1%; Freeze-thaw 3 cycles RE (%) ([5]; 200 ng/ml): -13.2%; Store at -20℃ for 24h RE (%) ([5]; 200 ng/ml): 11.9%; Store at auto-sampler RE (%) ([5]; 200 ng/ml): -10.5%; Freeze-thaw 3 cycles RE (%) ([5]; 1000 ng/ml): -3.6%; Store at -20℃ for 24h RE (%) ([5]; 1000 ng/ml): 1.7%; Store at auto-sampler RE (%) ([5]; 1000 ng/ml): -7.2%; stability in rat plasma samples [5]: stable
